Source: patent US20040204577A1, “Novel peptide-forming enzyme gene” (Ajinomoto Co., Inc., priority 2003, published 2004)
Where a SMILES comes first, the peptide text is derived from it. [ ]: non-standard residue; d: D form. The star is where a group is joined. OtBu = CC(C)(C)O*

What was measured:
[1] = test system: peptide-forming enzyme (Mono S fraction enzyme); test: Enzyme substrate specificity (1)-(10), (13), (14): peptide production; assay type: biochemical, Empedobacter brevis; design: key to Formed peptide: +: those peptides for which production was confirmed but which were unable to be quantified due to the absence of a standard; a trace amount
Protocol: Ester specificity was examined in the case of using L-amino acid ester for the carboxy component. 2 μl of the same enzyme fraction as used in Example 5 was added to 100 μl of 100 mM borate buffer (pH 9.0) containing the carboxy components indicated in Table 4 at 100 mM, 200 mM L-glutamine and 10 mM EDTA, and allowed to react at 25° C. for 2 hours. HCl represents hydrochloride in Table 4.
Peptide production was examined in the case of using L-alanine methyl ester for the carboxy component and using various L-amino acids for the amine component.
Peptide production was examined in the case of using various types of L-amino acid methyl esters for the carboxy component and using L-glutamine for the amine component. 2 μl of the same enzyme fraction as used in Example 5 was added to 100 μl of 100 mM borate buffer (pH 9.0) containing the L-amino acid methyl ester hydrochloride salts (AA-OMe.HCl) shown in Table 6 at 100 mM, 150 mM L-glutamine and 10 mM EDTA, and allowed to react at 25° C. for 3 hours. […] Furthermore, Tween-80 was added to the reaction system to a final concentration of 0.1% in the case of using L-Trp-OMe and L-Tyr-OMe.
Peptide production was examined in the case of using various L-amino acid methyl esters for the carboxy component and various L-amino acids for the amine component. 2 μl of the same enzyme fraction as used in Example 5 was added to 100 μl of 100 mM borate buffer (pH 9.0) containing the L-amino acid methyl ester hydrochloride salts (AA-OMe.HCl) shown in Table 7 at 100 mM, the L-amino acids shown in Table 7 at 150 mM and 10 mM EDTA, and allowed to react at 25° C. for 3 hours. The “tr” indicates a trace amount. Furthermore, Tween-80 was added to the reaction system to a final concentration of 0.1% in the case of using L-Trp-OMe.
Peptide production was examined in the case of using the L or D forms of various amino acid methyl esters for the carboxy component, and the L or D forms of various amino acids for the amine component. 2 μl of the same enzyme fraction as used in Example 5 was added to 100 μl of 100 mM borate buffer (pH 9.0) containing the various amino acid methyl ester hydrochloride salts (AA-OMe HCl) shown in Table 8 at 100 mM, the various amino acids shown in Table 8 at 150 mM and 10 mM EDTA, and allowed to react at 25° C. for 3 hours. The “tr” indicates a trace amount.
Peptide production was examined using various L-amino acid amides for the carboxy component, and various L-amino acids for the amine component. 2 μl of the same enzyme fraction as that used in Example 5 was added to 100 μl of 100 mM borate buffer (pH 9.0) containing the L-amino acid amide hydrochloride salt (M-NH2.HCl) shown in Table 9 at 100 mM, the L-amino acids shown in Table 9 at 150 mM and 10 mM EDTA, and allowed to react at 25° C. for 3 hours.
Peptide production was examined in the case of using various L-alanine methyl esters for the carboxy component and C-protected L-amino acids for the amine component. 2 μl of the same enzyme fraction as used in Example 5 was added to 100 μl of 100 mM borate buffer (pH 9.0) containing the L-alanine methyl ester hydrochloride hydrochloride salt (Ala-OMe.HCl) shown in Table 10 at 100 mM, the L-amino acid amide hydrochloride salts shown in Table 10 at 150 mM and 10 mM EDTA, and allowed to react at 25° C. for 3 hours.
Peptide production was examined in the case of using various amino acid methyl esters for the carboxy component and methylamine for the amine component. 2 μl of the same enzyme fraction as used in Example 5 was added to 100 μl of 100 mM borate buffer (pH 9.0) containing the amino acid methyl ester hydrochloride salt (M-OMe.HCl) shown in Table 11 at 100 mM, the methylamine shown in Table 11 at 150 mM and 10 mM EDTA, and allowed to react at 25° C. for 3 hours.
Peptide production was examined in the case of using […] for the carboxy component or β-amino acid for the amine component.

[2] = test system: enzyme derived from Sphingobacterium sp. strain FERM BP-8124 (SP-Sepharose HP fraction enzyme); test: Enzyme substrate specificity (11), (12): peptide production; assay type: biochemical; design: key to Produced peptide (Table 15-1) / Produced peptide (Table 15-3) / Produced peptide (Table 15-4): +: those peptides for which production was confirmed but which were unable to be quantified due to the absence of a standard; a trace amount; settings: carboxy component 100 mM, 0.33 units enzyme, pH 9.0, 25° C., 1.5 hours; for Produced peptide (Table 15-2): L-Gln 150 mM
From the text: Substrate specificity was examined for enzyme derived from Sphingobacterium sp. strain FERM BP-8124 (Depositary institution: the independent administrative corporation, National Institute of Advanced Industrial Science and Technology, International Patent Organism Depositary, Address of depositary institution: Chuo Dai-6, 1-1 Higashi 1-Chome, Tsukuba-shi, Ibaraki-ken, Japan, International deposit date: […] The amounts of various peptides formed in this reaction are shown in Table 15. The “+” mark indicates those peptides for which production was confirmed but which were unable to be quantified due to the absence of a standard, while “tr” indicates a trace amount. Furthermore, Tween-80 was added to the reaction system to a final concentration of 0.1% in the case of using L-Tyr-OMe. In addition, hydrochloride salts were used for all carboxy components. Substrate specificity with respect to oligopeptide production was examined for enzyme derived from Sphingobacterium sp. strain FERM BP-8124 (Depositary institution: the independent administrative corporation, National Institute of Advanced Industrial Science and Technology, International Patent Organism Depositary, Address of depositary institution: Chuo Dai-6, 1-1 Higashi 1-Chome, Tsukuba-shi, Ibaraki-ken, Japan, International deposit date: […] The amounts of each oligopeptide formed in this reaction are shown in Table 16. Furthermore, hydrochloride salts were used for all the carboxy components.

[3] = L-amino acid methyl ester hydrochloride 100 mM, 150 mM L-glutamine, pH 9.0, 25° C., 3 hours
[4] = L-amino acid methyl ester hydrochloride 100 mM, L-amino acid 150 mM, pH 9.0, 25° C., 3 hours
[5] = L or D amino acid methyl ester hydrochloride 100 mM, L or D amino acid 150 mM, pH 9.0, 25° C., 3 hours
[6] = L-amino acid ester 100 mM, peptide (amine component) 150 mM, pH 9.0, 25° C., 3 hours
[7] = β-amino acid ester or β-amino acid, carboxy component 100 mM, amine component 150 mM, pH 9.0, 25° C., 3 hours

CC[C@H](C)[C@H](N)C(=O)N[C@@H](CCC(N)=O)C(=O)O [L-Ile-L-Gln] (H-Ile-Gln-OH)
Formed peptide [1, 3]: 8.4 mM
Produced peptide (Table 15-2) [2]: 6.4 mM

CC(C)[C@H](N)C(=O)N[C@@H](CO)C(=O)O [L-Val-L-Ser] (H-Val-Ser-OH)
Formed peptide [1, 4]: 30.8 mM
Produced peptide (Table 15-3) ([2]; amine component 150 mM): 31.9 mM

NCC(=O)N[C@@H](CCC(N)=O)C(=O)O [Gly-L-Gln] (H-Gly-Gln-OH)
Formed peptide [1, 3]: 54.7 mM
Produced peptide (Table 15-2) [2]: 61.1 mM

C[C@H](N)C(=O)N[C@H](CO)C(=O)O [L-Ala-D-Ser] (H-Ala-[dS]-OH)
Formed peptide [1, 5]: 5.4 mM
Produced peptide (Table 15-1) ([2]; amine component 150 mM): 3.3 mM

CC(C)[C@H](N)C(=O)N[C@@H](CCC(N)=O)C(=O)O [L-Val-L-Gln] (H-Val-Gln-OH)
Formed peptide [1, 3]: 15.4 mM
Produced peptide (Table 15-2) [2]: 8.2 mM

C[C@@H](N)C(=O)N[C@@H](CO)C(=O)O [D-Ala-L-Ser] (H-[dA]-Ser-OH)
Formed peptide [1, 5]: 20.3 mM
Produced peptide (Table 15-1) ([2]; amine component 150 mM): 24.1 mM

NC(=O)CC[C@H](NC(=O)[C@@H](N)Cc1ccc(O)cc1)C(=O)O [L-Tyr-L-Gln] (H-Tyr-Gln-OH)
Formed peptide [1, 3]: 3.4 mM
Produced peptide (Table 15-2) [2]: 0.6 mM

C[C@@H](O)[C@H](N)C(=O)N[C@@H](CCC(N)=O)C(=O)O [L-Thr-L-Gln] (H-Thr-Gln-OH)
Formed peptide ([1]; L-amino acid amide hydrochloride as carboxy component 100 mM, L-amino acid 150 mM, pH 9.0, 25° C., 3 hours): 0.3 mM
Formed peptide [1, 3]: 81.9 mM
Produced peptide (Table 15-2) [2]: 36.1 mM

NC(=O)CC[C@H](NC(=O)[C@@H]1CCCN1)C(=O)O [L-Pro-L-Gln] (H-Pro-Gln-OH)
Formed peptide [1, 3]: 2.2 mM
Produced peptide (Table 15-2) [2]: 1.8 mM

C[C@H](N)C(=O)N[C@@H](C)C(N)=O [L-Ala-L-Ala-NH2] (H-Ala-Ala-NH2)
Formed peptide ([1]; L-alanine methyl ester hydrochloride 100 mM, L-amino acid amide hydrochloride 150 mM, pH 9.0, 25° C., 3 hours): 8.3 mM
Produced peptide (Table 15-4) ([2]; amides and methylamine, amine component 150 mM): 9.2 mM

NC(=O)CC[C@H](NC(=O)[C@@H](N)CCC(N)=O)C(=O)O [L-Gln-L-Gln] (H-Gln-Gln-OH)
Formed peptide [1, 3]: 0.3 mM
Produced peptide (Table 15-2) [2]: 0.1 mM

Gly-L-Ala-L-Tyr
Produced peptide [1, 6]: 1.7 mM
Produced peptide (Table 16, oligopeptide) ([2]; amine component 150 mM): 0.6 mM

CSCC[C@H](NC(=O)[C@@H](N)CCCN=C(N)N)C(=O)O [L-Arg-L-Met] (H-Arg-Met-OH)
Formed peptide [1, 4]: 0.7 mM
Produced peptide (Table 15-3) ([2]; amine component 150 mM): tr

L-Ala-Gly-Gly
Produced peptide [1, 6]: 41.7 mM
Produced peptide (Table 16, oligopeptide) ([2]; amine component 150 mM): 33.7 mM

L-Ala-L-Ala-L-Ala
Produced peptide [1, 6]: 57.5 mM
Produced peptide (Table 16, oligopeptide) ([2]; amine component 150 mM): 41.1 mM

NC(N)=NCCC[C@H](N)C(=O)N[C@@H](Cc1ccccc1)C(=O)O [L-Arg-L-Phe]
Formed peptide [1, 4]: 1.9 mM
Produced peptide (Table 15-3) ([2]; amine component 150 mM): tr

NCC(=O)N[C@@H](CCCN=C(N)N)C(=O)O [Gly-L-Arg] (H-Gly-Arg-OH)
Formed peptide [1, 4]: 25.5 mM
Produced peptide (Table 15-3) ([2]; amine component 150 mM): 17.9 mM

CSCC[C@H](N)C(=O)N[C@@H](CCC(N)=O)C(=O)O [L-Met-L-Gln] (H-Met-Gln-OH)
Formed peptide [1, 3]: 12.0 mM
Produced peptide (Table 15-2) [2]: 32.6 mM

L-Ala-L-Ala-L-Ala-L-Ala-L-Ala
Produced peptide [1, 6]: 34.8 mM
Produced peptide (Table 16, oligopeptide) ([2]; amine component 150 mM): 22.8 mM

CSCC[C@H](N)C(=O)N[C@@H](CO)C(=O)O [L-Met-L-Ser] (H-Met-Ser-OH)
Produced peptide (Table 15-3) ([2]; amine component 150 mM): 25.3 mM

CSCC[C@H](NC(=O)[C@@H](N)CCSC)C(=O)O [L-Met-L-Met] (H-Met-Met-OH)
Produced peptide (Table 15-3) ([2]; amine component 150 mM): 28.4 mM

C[C@@H](O)[C@H](N)C(=O)N[C@H](CO)C(=O)O [L-Thr-D-Ser] (H-Thr-[dS]-OH)
Formed peptide [1, 5]: 6.9 mM

C[C@H](NC(=O)CCN)C(=O)O [β-Ala-L-α-Ala]
Formed peptide [1, 7]: tr

C[C@@H](O)[C@H](N)C(=O)NCCC(=O)O [Thr-β-Ala]
Formed peptide [1, 7]: 3.2 mM

CC(C)[C@@H](N)C(=O)N[C@@H](CO)C(=O)O [D-Val-L-Ser] (H-[dV]-Ser-OH)
Formed peptide [1, 5]: 0.6 mM

Gly-Gly-L-Tyr-L-Ala
Produced peptide [1, 6]: 44.2 mM

Gly-Phe-Met
Produced peptide (oligopeptide) ([1]; amount of enzyme 1.0 unit, pH 9.0, 25° C., 3 hours): 13.3 mM

C[C@H](N)C(=O)N[C@@H](Cc1ccc(Cl)cc1)C(=O)O [H-Ala-Cl-F-Phe-OH]
Produced peptide ([1]; carboxy component 40 mM, amine component 40 mM, 0.1 unit enzyme, 25° C., reaction time 3 hr): 20.8 mM

NCC(=O)NC(CC(=O)O)c1ccccc1 (stereo not drawn) [Gly-β-Phe]
Formed peptide [1, 7]: 0.4 mM

CC(N)C(=O)NCCC(=O)O (stereo not drawn) [Ala-β-Ala]
Formed peptide [1, 7]: 7.7 mM

NC(=O)CC[C@H](NC(=O)[C@@H](N)Cc1cnc[nH]1)C(=O)O [L-His-L-Gln] (H-His-Gln-OH)
Formed peptide [1, 3]: +

C[C@H](O)[C@@H](N)C(=O)N[C@H](CO)C(=O)O [D-Thr-D-Ser] (H-[dT]-[dS]-OH)
Formed peptide [1, 5]: 1.1 mM

C[C@H](N)C(=O)N[C@@H](CC(=O)OC(C)(C)C)C(=O)O [H-Ala-Asp(OtBu)-OH] (H-Ala-Asp(OtBu)-OH)
Produced peptide ([1]; carboxy component 100 mM, amine component 150 mM, 0.1 unit enzyme, 25° C., reaction time 2 hr): 62.6 mM

NCCC(=O)NC(CO)C(=O)O [β-Ala-L-Ser]
Formed peptide [1, 7]: 3.2 mM

NCCC(=O)NCCC(=O)O [β-Ala-β-Ala]
Formed peptide [1, 7]: 0.2 mM

N[C@@H](CO)C(=O)N[C@H](CO)C(=O)O [L-Ser-D-Ser] (H-Ser-[dS]-OH)
Formed peptide [1, 5]: 16.2 mM

CSCC[C@H](NC(=O)[C@@H](N)Cc1c[nH]c2ccccc12)C(=O)O [L-Trp-L-Met] (H-Trp-Met-OH)
Formed peptide [1, 4]: 4.1 mM
